Tests used:
DU145, PC3, HCT116 cells = assay: Annexin V apoptosis assay (Guava Nexin); type: cell-based, human; settings: DU145, HCT116 or PC3, siRNA 50 nM, relative to mock transfected, FIG. 34
Description: Apoptosis or programmed cell death is an important and active regulatory pathway of cell growth and proliferation. Cells respond to specific induction signals by initiating intracellular processes that result in characteristic physiological changes. Among these are externalisation of phosphotidylserine (PS) to the cell surface, cleavage and degradation of specific cellular proteins, compaction and fragmentation of nuclear chromatin and loss of membrane integrity (in late stages). Annexin V is a calcium-dependant phospholipid binding protein with a high affinity for phosphotidyl serine (PS), a membrane component normally localised to the internal face of the cell membrane. Early in the apoptotic pathway molecules of PS are translocated to the outer surface of the cell membrane where Annexin V can readily bind to them.
Annexin V assays are performed using the Guava Nexin Assay, which utilises Annexin V-PE to detect PS on the external membrane of apoptotic cells. The cell impermeant dye 7-AAD is included in the assay as an indicator of membrane structural integrity as it is excluded from live and early apoptotic cells but permeates late stage apoptotic and dead cells. Assays are performed using a Guava Technologies Personal Cytometer and Guava Nexin Kit (catalogue no. 4500-0010, Guava Technologies Inc) using a modification of the manufacturer's protocol, where cells are transfected with siRNA in 24-well plates and assays performed at 24, 48 and 72 hours post-transfection.
Cells (DU145, PC3 & HCT116) are plated at a density of 20000 cells/well in 500 μl medium in 24-well plates and incubated overnight at 37° C. in a humidified atmosphere containing 5% CO2. […]
The 500 μl of media is decanted from the cells and combined with 150 μl of PBS used to wash them. […] Then, 450 μl 1× Nexin Buffer is added to the cells and the cell population analysed using the Guava Personal Cytometer following the manufacturer's instructions. […] The total number of early and late apoptotic cells is measured and the relative number of apoptotic cells calculated. […]

U251 cells = assay: Anchorage Independence/Soft Agar Assay, U251; type: cell-based, human; settings: soft agar, experiment n = 1
Procedure: The Anchorage Independence/Soft Agar Assay allows assessment of the influence of modulation of gene expression on clonal tumouroid formation by observing and quantifying tumouroid morphology and colony number over an extended period of logarithmic growth thereby ascertaining any cell death is induced.
Cells are seeded into a 6-well plate and allowed to adhere overnight at 37° C. in a humidified atmosphere containing 5% CO2 in air. Cells are next transfected with siRNA Oligomers, at a concentration of 2 μg, against the genes of interest. Transfections continued for 4 hrs after which the transfection solution is removed and cells are refed with fresh medium and allowed incubate overnight. Transfected cells are next harvested for seeding into soft agar assay as described below. […] Colonies formed are subsequently stained with Crystal Violet, their morphology is assessed and colonies formed are enumerated at a 4× magnification.
The cytotoxic effect of each gene is determined by a reduction in colony number compared to our MS control, but any influence on the morphology of the colony is also noted.
Examples of genes with a cytotoxic effect on knockdown as detected by the soft agar assay are outlined in Table 14. […]

Row | Substance | apoptosis by Annexin V staining (DU145, PC3, HCT116 cells) | PERCENTAGE SURVIVAL RELATIVE TO MS, U251, n = 1 (U251 cells)
1 | siRNA EKI: siRNA duplex, sense GCACUGGAUCCAAAGCAUGtt, antisense CAUGCUUUGGAUCCAGUGCtt; same in Tables 9 and 11 (sense GCACUGGAUCCAAAGCAUGTT; antisense CAUGCUUUGGAUCCAGUGCTT; chemistry not given here) | undergo apoptosis | –
2 | siRNA MPSK1: sense GGGUUAUGCCCACAGAGACtt, antisense GUCUCUGUGGGCAUAACCCtt (sense GGGUUAUGCCCACAGAGACTT; antisense GUCUCUGUGGGCAUAACCCTT; chemistry not given here) | – | 18%
3 | siRNA NTKL: siRNA duplex, sense UGUGGAGCUGAUGAAGCACtt, antisense GUGCUUCAUCAGCUCCACAtt; same in Tables 9 and 11 (sense UGUGGAGCUGAUGAAGCACTT; antisense GUGCUUCAUCAGCUCCACATT; chemistry not given here) | undergo apoptosis | –
4 | siRNA ROCK: siRNA duplex, sense UACAUGCCUGGUGGAGAUCtt, antisense GAUCUCCACCAGGCAUGUAtt; same in Tables 9 and 11 (sense UACAUGCCUGGUGGAGAUCTT; antisense GAUCUCCACCAGGCAUGUATT; chemistry not given here) | undergo apoptosis | –

From patent publication US20050019746A1, “Apoptosis-related kinase/GPCRs” (EiRx Therapeutics Limited, priority 2003, published 2005)
